Residues, ends and D or L forms follow the SMILES beside them.
Biological target: T1, natural hair keratin (Hair Keratin KRTHB1 Basic, SEQ ID NO: 7) (Homo sapiens, UniProt Q14533)
T1 sequence (Q14533 304-505): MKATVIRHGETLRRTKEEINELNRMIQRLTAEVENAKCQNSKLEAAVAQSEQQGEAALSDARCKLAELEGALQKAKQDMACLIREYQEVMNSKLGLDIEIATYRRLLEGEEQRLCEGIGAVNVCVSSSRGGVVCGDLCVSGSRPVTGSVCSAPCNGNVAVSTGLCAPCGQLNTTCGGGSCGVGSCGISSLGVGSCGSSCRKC
Test: SPRi binding affinity of peptides to keratin printed on a sensor chip
Conditions: for kon / koff: SPRi, 4° C., kinetic analysis with BIAevaluation 4.1; for kon: read-out: Ka (association rate constant); for koff: read-out: Kd (dissociation rate constant); for Affinity ranking: rank by KD, the lower the KD the more affinity to hair keratin
Method: Affinity of Aquis peptides with natural hair keratin were tested. A third peptide was also tested with the sequence GGVCGPSPPCITT (SEQ ID NO: 6) known as KP developed by Khairpep as a control. KP has been shown in previous patent and publications to penetrate the hair shaft, bind to keratin and improve hair mechanical properties. Various concentrations of Keratin dissolved in water were manually printed onto the bare gold coated (thickness 47 nm) PlexArray Nanocapture Sensor Chip (Plexera Bioscience, Seattle, WA, US) at 40% humidity. Each concentration was printed in replicate, and each spot contained 0.2 microliters of […] solution. The chip was incubated in 80% humidity at 4° C. for overnight, and rinsed with 10×PBST for 10 min, 1×PBST for 10 min, and deionized water twice for 10 min. The chip was then blocked with 5% (w/v) non-fat milk in water overnight, and washed with 10×PBST for 10 min, 1×PBST for 10 min, and deionized water twice for 10 min before being dried under a stream of nitrogen prior to use. SPRi measurements were performed with PlexAray HT (Plexera Bioscience, Seattle, WA, US). Collimated light (660 nm) passes through the coupling prism, reflects off the SPR-active gold surface, and is received by the CCD camera. Buffers and samples were injected by a non-pulsatile piston pump into the 30 uL flowcell that was mounted on the coupling prim. Each measurement cycle contained four steps: washing with PBST running buffer at a constant rate of 2 uL/s to obtain a stable baseline, sample injection at 5 uL/s for binding, surface washing with PBST at 2 uL/s for 300 s, and regeneration with 0.5% (v/v) H3PO4 at 2 uL/s for 300 s. All the measurements were performed at 4° C. The signal changes after binding and washing (in AU) are recorded as the assay value. Selected protein-grafted regions in the SPR images were analyzed, and the average reflectivity variations of the chosen areas were plotted as a function of time. Real-time binding signals were recorded and analyzed by Data Analysis Module (DAM, Plexera Bioscience, Seattle, WA, US). Kinetic analysis was performed using BIAevaluation 4.1 software (Biacore, Inc.).
FIG. 1 to 3 show the binding affinity to keratin for each peptide tested. The lower the KD value is, the more affinity the peptide has to hair keratin.

kon	koff	Affinity ranking	affinity to hair keratin compared with the other peptides (comparison of Figures 1-3, in words)	SMILES
8500 M⁻¹ s⁻¹	0.000692 s⁻¹	2		CC[C@H](C)[C@H](NC(=O)[C@H](CS)NC(=O)[C@@H]1CCCN1C(=O)[C@@H]1CCCN1C(=O)[C@H](CO)NC(=O)[C@@H]1CCCN1C(=O)CNC(=O)[C@H](CS)NC(=O)[C@@H](NC(=O)CNC(=O)CN)C(C)C)C(=O)N[C@H](C(=O)N[C@H](C(=O)O)[C@@H](C)O)[C@@H](C)O [KP, GGVCGPSPPCITT, reference compound] (H-GGVCGPSPPCITT-OH; N-terminus and C-terminus assumed)
8240 M⁻¹ s⁻¹	0.0206 s⁻¹	3		CC(C)C[C@H](NC(=O)[C@H](CCC(N)=O)NC(=O)[C@H](CS)NC(=O)[C@H](CS)NC(=O)[C@H](CO)NC(=O)[C@@H]1CCCN1C(=O)[C@@H]1CCCN1C(=O)[C@@H](NC(=O)[C@@H](N)CS)[C@@H](C)O)C(=O)N[C@@H](Cc1c[nH]cn1)C(=O)N[C@@H](Cc1c[nH]cn1)C(=O)N[C@@H](C)C(=O)O [Aquis 2, CTPPSCCQLHHA] (H-CTPPSCCQLHHA-OH; N-terminus and C-terminus assumed)
1310 M⁻¹ s⁻¹	0.000478 s⁻¹	1	has the most affinity to hair keratin	C[C@@H](O)[C@H](NC(=O)[C@H](CO)NC(=O)[C@H](CS)NC(=O)[C@H](CO)NC(=O)[C@@H]1CCCN1C(=O)[C@H](Cc1ccccc1)NC(=O)CNC(=O)[C@H](CS)NC(=O)[C@@H](N)Cc1ccccc1)C(=O)N[C@@H](CO)C(=O)NCC(=O)O [Aquis 1, FCGFPSCSTSG] (H-FCGFPSCSTSG-OH; N-terminus and C-terminus assumed)

Source: US12357556B2, “Composition for improving hair health” (K18, Inc., priority 2018, dated 2025)
